Experiments:
[1] = target: T1, human blood platelet PDE5 (Homo sapiens, UniProt O76074); assay: PDE5 enzyme inhibition activity test (scintillation proximity); type: biochemical
T1 construct: obtained by suitably treating various tissues and separating the enzyme with FPLC; from tissue; host or cells: human blood platelets
Method in brief: (§1)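 Enzymes were used immediately after isolation: PDE6 from bovine retina, PDE5 from human platelets. Each was incubated 30 min at 30 °C with varying inhibitor concentrations and a small amount of substrate in Tris/HCl pH 7.5 buffer with MgCl2 and EGTA. Reactions were quenched with zinc-sulphate yttrium silicate SPA beads and product counted by scintillation.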

PDE6 in bovine retina = target: T2, PDE6 in bovine retina (Bos taurus, UniProt P11541+P23439); assay: PDE6 enzyme inhibition activity test (scintillation proximity); type: biochemical; conditions: for IC50: PDE6 separated from bovine retina, read-out: PDE6 IC50; for PDE6 IC50/PDE5 IC50: selectivity, ratio of IC50 PDE6/IC50 PDE5
T2 construct: obtained by suitably treating various tissues and separating the enzyme with FPLC; from tissue; host or cells: bovine retina
T2 sequence (P11541 2-856 limits assumed): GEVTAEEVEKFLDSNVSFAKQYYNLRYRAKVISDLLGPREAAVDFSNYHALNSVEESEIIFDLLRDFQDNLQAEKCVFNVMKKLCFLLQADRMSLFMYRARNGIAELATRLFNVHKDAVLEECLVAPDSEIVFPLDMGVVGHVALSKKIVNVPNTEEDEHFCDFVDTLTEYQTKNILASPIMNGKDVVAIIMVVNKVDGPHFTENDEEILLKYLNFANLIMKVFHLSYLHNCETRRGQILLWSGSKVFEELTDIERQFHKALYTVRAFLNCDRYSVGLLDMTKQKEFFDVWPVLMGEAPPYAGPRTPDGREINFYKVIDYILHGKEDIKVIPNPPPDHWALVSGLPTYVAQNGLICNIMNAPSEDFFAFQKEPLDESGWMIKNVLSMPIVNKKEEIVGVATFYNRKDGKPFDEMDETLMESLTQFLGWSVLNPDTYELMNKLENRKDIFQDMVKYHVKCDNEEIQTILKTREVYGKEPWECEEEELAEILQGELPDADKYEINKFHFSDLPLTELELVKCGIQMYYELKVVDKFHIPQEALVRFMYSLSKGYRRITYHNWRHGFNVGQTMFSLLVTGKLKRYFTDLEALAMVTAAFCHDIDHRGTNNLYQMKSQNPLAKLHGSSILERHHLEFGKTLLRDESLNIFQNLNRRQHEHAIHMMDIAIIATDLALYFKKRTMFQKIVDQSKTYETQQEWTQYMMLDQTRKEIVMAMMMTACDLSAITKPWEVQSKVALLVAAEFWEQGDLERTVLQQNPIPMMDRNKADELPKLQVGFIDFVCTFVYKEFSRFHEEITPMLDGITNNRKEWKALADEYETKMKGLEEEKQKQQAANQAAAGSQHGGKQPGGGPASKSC
T2 sequence (P23439 2-850 limits assumed): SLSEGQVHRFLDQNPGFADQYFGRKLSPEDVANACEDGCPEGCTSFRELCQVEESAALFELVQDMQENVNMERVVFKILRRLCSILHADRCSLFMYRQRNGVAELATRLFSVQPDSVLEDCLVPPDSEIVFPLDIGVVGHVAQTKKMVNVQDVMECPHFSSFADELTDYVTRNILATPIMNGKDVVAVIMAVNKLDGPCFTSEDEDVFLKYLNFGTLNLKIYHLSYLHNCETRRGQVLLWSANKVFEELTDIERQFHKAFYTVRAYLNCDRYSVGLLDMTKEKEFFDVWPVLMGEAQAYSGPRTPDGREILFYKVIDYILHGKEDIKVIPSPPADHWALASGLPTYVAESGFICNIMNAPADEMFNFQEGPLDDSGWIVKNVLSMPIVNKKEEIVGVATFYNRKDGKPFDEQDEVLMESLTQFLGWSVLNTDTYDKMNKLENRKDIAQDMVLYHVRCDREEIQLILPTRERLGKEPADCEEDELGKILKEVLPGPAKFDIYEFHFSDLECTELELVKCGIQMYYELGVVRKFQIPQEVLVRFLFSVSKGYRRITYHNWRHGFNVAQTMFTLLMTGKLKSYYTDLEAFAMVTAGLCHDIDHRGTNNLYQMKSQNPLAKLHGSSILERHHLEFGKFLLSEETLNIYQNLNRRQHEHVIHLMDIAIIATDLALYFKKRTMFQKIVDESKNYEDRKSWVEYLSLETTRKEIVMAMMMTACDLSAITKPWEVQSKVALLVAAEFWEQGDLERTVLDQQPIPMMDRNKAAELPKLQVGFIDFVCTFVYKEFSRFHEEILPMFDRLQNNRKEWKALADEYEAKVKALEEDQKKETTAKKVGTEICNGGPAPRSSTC
Method in brief: as §1

IC50 ([1]; PDE5 table) [nM]	IC50 ([1]; as repeated in the PDE6 table) [nM]	IC50 (PDE6 in bovine retina) [nM]	PDE6 IC50/PDE5 IC50 (PDE6 in bovine retina)	SMILES
2.85	2.85	22.2	7.80	CCCOc1ccc(NC(=O)C(Cc2ccccc2)NC(C)=O)cc1-c1nc(CC)c(CC)c(=O)[nH]1 (centres unmarked) [Example 110, 2-acetamido-N-(3-(4,5-diethyl-1,6-dihydro-6-oxopyrimidin-2-yl)-4-n-propoxyphenyl)-3-phenylpropionamide]
4.61	4.61	24.6	5.33	CCCOc1ccc(NC(=O)CC(=O)OCC)cc1-c1nc(CC)c(CC)c(=O)[nH]1 [Example 102, ethyl N-(3-(4,5-diethyl-1,6-dihydro-6-oxopyrimidin-2-yl)-4-n-propoxyphenyl)aminoformylacetate]

— patent US8871777B2, “Phenylpyrimidone compounds, the pharmaceutical compositions, preparation methods and uses thereof” (Topharman Shanghai Co., Ltd., priority 2008, dated 2014)
